Results as given in publication PMC7582705, “Structure-Based Discovery of Novel Chemical Classes of Autotaxin Inhibitors” (International Journal of Molecular Sciences, 2020).

Tests used:
[1] = biological target: T1, ATX (Homo sapiens, UniProt Q13822); experiment: Amplex Red Lyso-phospholipase D assay, human ATX; format: biochemical; set-up: purchased Sino Biological; settings: for inhibition at 30 µM: Table S2, at 30uM, read-out: %inhibition at 30uM
Protocol: All compounds proposed were assessed for their ATX inhibitory activity in vitro using the Amplex Red assay. The Amplex Red Lyso-phospholipase D assay is a fluorometry-based assay providing a sensitive method for measuring Lyso-phospholipase D (ATX) activity in vitro. In this enzyme-coupled assay, ATX activity is monitored indirectly using 10-acetyl-3,7-dihydrophenoxazine (Amplex Red reagent), a sensitive fluorogenic probe for H2O2. ATX initially cleaves the Lysophosphatidylcholine (LPC) substrate to yield choline and Lysophosphatidic acid (LPA), while choline gets subsequently oxidized by choline oxidase to betaine and H2O2. Lastly, H2O2, in the presence of horseradish peroxidase (HRP), reacts with Amplex Red reagent in a 1:1 stoichiometry to generate the highly fluorescent product resorufin.
The inhibition assay was performed as previously described with some modifications in order to accommodate the newly-discovered lag phase in ATX kinetics. To this end, and in order to provide adequate time to the hydrolysis of LPC by ATX, we added a 30min incubation period between ATX, inhibitors and LPC. Briefly, 2 μL of different concentrations of inhibitors diluted in DMSO (Sigma-Aldrich, St. Louis, MO, USA) were incubated with 50 µL of ATX 8 nM (human or mouse ATX from Sino Biological), and 48 µL reaction buffer (50 mM Tris-Cl pH 8.0 from Thermo Fisher Scientific, Waltham, MA, USA and 5 mM CaCl2 from Honeywell-Fluka, Charlotte, NC, USA) in a black 96-well microplate for 15 min at 37 °C. Thence, another 50 µL of reaction buffer with 200 μM LPC substrate 16:0 (Avanti Polar Lipids Inc, Alabaster, AL, USA) ([…]) was added to the reaction mixture and incubated for 30 min at 37 °C in order for ATX to convert LPC to LPA and choline. Finally, 50 µL of working solution containing 200 μM Amplex Red (Invitrogen, Carlsbad, CA, USA), 4 U/mL HRP (Sigma-Aldrich, St. Louis, MO, USA), 0.4 U/mL choline oxidase (Sigma-Aldrich, St. Louis, MO, USA) in 50 mM Tris-HCl pH 8.0 and 5 mM CaCl2 was added to measure the produced choline. The reaction was monitored at 37 °C in a fluorescence plate reader using excitation at 530 nm and reading at 590 nm, every 5 min for 30 min. The velocity of the reaction and the remaining activity of ATX were calculated at the linear phase of the reaction and dose-response inhibition graphs were plotted with GraphPad Software (GraphPad Software, San Diego, CA, USA). […] In order to evaluate a possible effect of the compounds on the second (choline oxidase) and third (HRP) enzymes of the Amplex Red assay, we also performed the assay in the absence of ATX but in the presence of the compounds. Instead of ATX, we added choline chloride at a final concentration of 2 µM so as the second and third steps of the assay could proceed normally.

[2] = Solubility (Table S1); settings: YES/NO
[3] = biological target: T1, ATX; experiment: IC50 Eleanna (Table S2, method not described); format: biochemical; settings: Table S2; read-out: IC50 Eleanna
[4] = recombinant human ATX 2 nM, LPC 16:0 substrate, Amplex Red, read-out: IC50 hATX
[5] = in vitro IC50 (Sino hATX 2nM), Table S2, Sino hATX 2nM

| SMILES | IC50 [1, 4] [µM] | Solubility [2] | IC50 [3] [µM] | IC50 [1, 5] [µM] | other results |
| --- | --- | --- | --- | --- | --- |
| N#Cc1ccc(-c2c(NC(=O)NS(=O)(=O)c3ccccc3Cl)oc(-c3ccco3)c2C#N)cc1 [CD09529, 2-[({[(2-chlorophenyl)sulphonyl]amino}carbonyl)amino]-4-cyano-3-(4-cyanophenyl)-5-(2-furyl)furan] | > 100 | YES | – | – | – |
| O=C1S/C(=C\c2ccc(OCc3ccc(B(O)O)cc3)cc2)C(=O)N1Cc1ccc(F)cc1 [HA155, [4-[[4-[(Z)-[3-[(4-fluorophenyl)methyl]-2,4-dioxo-1,3-thiazolidin-5-ylidene]methyl]phenoxy]methyl]phenyl]boronic acid, reference compound] | – | YES | – | – | – |
| Cc1nn(-c2ccccc2)c2nc(OCC(=O)c3ccc(Br)cc3)c(C#N)c(-c3cccnc3)c12 [HTS09079, 6-[2-(4-bromophenyl)-2-oxoethoxy]-3-methyl-1-phenyl-4-pyridin-3-,ylpyrazolo[4,5-e]pyridine-5-carbonitrile] | > 100 | YES | – | – | – |
| Cc1ccc(S(=O)(=O)n2cc(C=C3C(=O)Nc4ccccc43)c3ccccc32)cc1 [SC-18, 3-[[1-(4-methylphenyl)sulfonylindol-3-yl]methylidene]-1H-indol-2-one] | – | – | 5 | 30 | inhibition at 30 µM [1]: 55.3% |
| O=C(Nc1c2c(nn1-c1ccc(F)cc1)C[S+]([O-])C2)c1ccc2ccccc2c1 (centres unmarked) [SC-24, N-[2-(4-fluorophenyl)-5-oxo-4,6-dihydrothieno[3,4-c]pyrazol-3-yl]naphthalene-2-carboxamide] | – | – | 4 | > 30 | inhibition at 30 µM [1]: 18.2% |
| Cc1ccc(S(=O)(=O)N2CCN3C(=O)c4ccccc4C32c2ccccc2)cc1 (centres unmarked) [SC-26, 1-(4-methylphenyl)sulfonyl-9b-phenyl-2,3-dihydroimidazo[2,1-a]isoindol-5-one] | – | – | > 5 | > 30 | – |
| Cc1ccc(-n2nc3c(c2NC(=O)c2ccc4ccccc4c2)C[S+]([O-])C3)cc1 (centres unmarked) [SC-27, N-[2-(4-methylphenyl)-5-oxo-4,6-dihydrothieno[3,4-c]pyrazol-3-yl]naphthalene-2-carboxamide] | – | – | > 5 | > 30 | – |
| Cc1nc(-c2ccc(NS(=O)(=O)c3ccc4c5c(cccc35)CC4)cc2)cs1 [SC-30, N-[4-(2-methyl-1,3-thiazol-4-yl)phenyl]-1,2-dihydroacenaphthylene-5-sulfonamide] | – | – | > 5 | > 30 | – |
| O=C(Cn1cnc2ccsc2c1=O)c1c(-c2ccccc2)[nH]c2ccccc12 [SC-34, 3-[2-oxo-2-(2-phenyl-1H-indol-3-yl)ethyl]thieno[3,2-d]pyrimidin-4-one] | – | – | 5 | > 30 | inhibition at 30 µM [1]: 16% |
| CC12N[N+](c3ccccc3)=C(c3ccccc3)C1S(=O)(=O)c1ccccc12 (centres unmarked) [SC-36, 8b-methyl-2,3-diphenyl-1,3a-dihydro-[1]benzothiolo[3,2-c]pyrazol-2-ium 4,4-dioxide] | – | – | > 5 | – | IC50 ([1]; read-out: in vitro IC50 (Sino hATX 2nM), Table S2, Sino hATX 2nM): > 30 µM |
| Cc1ncc(-c2ccc(NS(=O)(=O)c3ccc4c5c(cccc35)CC4)cc2)o1 [SC-37, N-[4-(2-methyl-1,3-oxazol-5-yl)phenyl]-1,2-dihydroacenaphthylene-5-sulfonamide] | – | – | > 5 | > 30 | – |
| CN1C(=O)C(=NNC(=O)c2cc(-c3cccs3)nc3ccccc23)c2ccccc21 [SC-40, N-[(1-methyl-2-oxoindol-3-ylidene)amino]-2-thiophen-2-ylquinoline-4-carboxamide] | – | – | > 5 | > 30 | – |
| O=C1c2ccccc2-c2ccc(C(=O)N3CCN(C(=O)c4cccs4)CC3)cc21 [SC-42, 2-[4-(thiophene-2-carbonyl)piperazine-1-carbonyl]fluoren-9-one] | – | – | 4.53 | > 30 | – |
| Cc1ccc(-n2nc3c(c2NC(=O)c2cccc4ccccc24)CS(=O)(=O)C3)cc1 [SC-43, N-[2-(4-methylphenyl)-5,5-dioxo-4,6-dihydrothieno[3,4-c]pyrazol-3-yl]naphthalene-1-carboxamide] | – | – | > 5 | > 30 | – |
| O=C1NC(=O)C(=Cc2cn(Cc3ccc4ccccc4c3)c3ccccc23)S1 [SC-45, 5-[[1-(naphthalen-2-ylmethyl)indol-3-yl]methylidene]-1,3-thiazolidine-2,4-dione] | – | – | > 5 | > 30 | – |
| Cc1ccccc1-n1nc2c(c1NC(=O)c1ccc3ccccc3c1)CS(=O)(=O)C2 [SC-47, N-[2-(2-methylphenyl)-5,5-dioxo-4,6-dihydrothieno[3,4-c]pyrazol-3-yl]naphthalene-2-carboxamide] | – | – | 3.4 | > 30 | inhibition at 30 µM [1]: 38.6% |

Continued, in another order:

| IC50 [1, 4] [µM] | Solubility [2] | IC50 [3] [µM] | IC50 [1, 5] [µM] | SMILES | other results |
| --- | --- | --- | --- | --- | --- |
| > 100 | YES | – | – | Cc1cc(OC(=O)c2c(-c3ccccc3)noc2C)c2cc(F)ccc2n1 [BTB01297, (6-fluoro-2-methylquinolin-4-yl) 5-methyl-3-phenyl-1,2-oxazole-4-carboxylate] | – |
| > 100 | YES | – | – | C(=C1c2ccccc2-c2ccccc21)C(C=C1c2ccccc2-c2ccccc21)c1ccccc1 [BTB11132, 9-[3-(9H-fluoren-9-yliden)-2-phenylpropylidene]-9H-fluorene] | – |
| > 100 | YES | – | – | O=C(c1ccc(Sc2ccccc2)c([N+](=O)[O-])c1)N(Cc1ccc2c(c1)OCO2)c1ccc(F)cc1 [DSHS00944, N-(1,,3-benzodioxol-5-ylmethyl)-N-(4-fluorophenyl)-3-nitro-4-,phenylsulfanylbenzamide] | – |
| – | YES | – | – | CCc1nc2c(C)cc(N3CCN(CC(=O)N4CC(O)C4)CC3)cn2c1N(C)c1nc(-c2ccc(F)cc2)c(C#N)s1 [GLPG1690, 2-[[2-ethyl-6-[4-[2-(3-hydroxyazetidin-1-yl)-2-oxoethyl]piperazin-1-yl]-8-methylimidazo[1,2-a]pyridin-3-yl]-methylamino]-4-(4-fluorophenyl)-1,3-thiazole-5-carbonitrile, reference compound] | – |
| > 100 | YES | – | – | O=c1[nH]nc(-c2ccc(F)cc2)cc1Cc1cn(Cc2ccccc2)c2ccc([N+](=O)[O-])cc12 [HTS01403, 4-[(1-benzyl-5-nitro-1H-indol-3-yl)methyl]-6-(4-fluorophenyl)pyridazin-3(2H)-one] | – |
| > 100 | YES | – | – | O=C(CSc1nc2cc(Cl)ccc2o1)Nc1cc(C(F)(F)F)cc(C(F)(F)F)c1 [HTS01561, N-[3,5-bis(trifluoromethyl)phenyl]-2-[(5-chloro-1,3-benzoxazol-2-yl)thio]acetamide] | – |
| > 100 | YES | – | – | O=S(=O)(Nc1cc(C(F)(F)F)ccc1N1CCc2ccccc2C1)c1cccc2nonc12 [HTS01790, N-[2-(3,4-dihydro-1H-isoquinolin-2-yl)-5-(trifluoromethyl)phenyl]-2,1,,3-benzoxadiazole-7-sulfonamide] | – |
| > 100 | YES | – | – | CC(C)(C)c1ccc(-c2nnc(SCC(=O)c3ccccc3)n2-c2ccc3c(c2)OCO3)cc1 [HTS02043, 2-[[4-(1,3-benzodioxol-5-yl)-5-(4-tert-butylphenyl)-1,2,4-triazol-3-yl]sulfanyl]-1-phenylethanone] | – |
| > 100 | YES | – | – | Cc1ccc(S(=O)(=O)CCSc2n[nH]c(=O)n2-c2ccc(OCc3ccccc3)cc2)cc1 [HTS02873, 4-[4-(benzyloxy)phenyl]-5-({2-[(4-methylphenyl)sulfonyl]ethyl}sulfanyl)-2,4-dihydro-3H-1,2,4-triazol-3-one] | – |
| > 100 | YES | – | – | O=C(c1cccnc1Oc1ccc(Cl)cc1)N1CCN(C2c3ccccc3-c3ccccc32)CC1 [HTS07938, [2-(4-chlorophenoxy)pyridin-3-yl]-[4-(9H-fluoren-9-yl)piperazin-1-yl],methanone] | – |
| > 100 | YES | – | – | Cc1c(S(=O)(=O)N2CCN(C3c4ccccc4-c4ccccc43)CC2)sc2ccc(Cl)cc12 [HTS08762, 1-[(5-chloro-3-methyl-1-benzothiophen-2-yl)sulfonyl]-4-(9H-fluoren-9-yl)piperazine] | – |
